In US20190367516A1 (Bayer Pharma Aktiengesellschaft, priority 2015, published 2019):
Like-named read-outs stand apart in the source and are kept apart here.

Legend:
human M2 receptor [1] = biological target: T1, human M2 receptor (Homo sapiens, UniProt P08172); format: cell-based; conditions: α >1 = positive cooperativity
T1 sequence (P08172 1-466): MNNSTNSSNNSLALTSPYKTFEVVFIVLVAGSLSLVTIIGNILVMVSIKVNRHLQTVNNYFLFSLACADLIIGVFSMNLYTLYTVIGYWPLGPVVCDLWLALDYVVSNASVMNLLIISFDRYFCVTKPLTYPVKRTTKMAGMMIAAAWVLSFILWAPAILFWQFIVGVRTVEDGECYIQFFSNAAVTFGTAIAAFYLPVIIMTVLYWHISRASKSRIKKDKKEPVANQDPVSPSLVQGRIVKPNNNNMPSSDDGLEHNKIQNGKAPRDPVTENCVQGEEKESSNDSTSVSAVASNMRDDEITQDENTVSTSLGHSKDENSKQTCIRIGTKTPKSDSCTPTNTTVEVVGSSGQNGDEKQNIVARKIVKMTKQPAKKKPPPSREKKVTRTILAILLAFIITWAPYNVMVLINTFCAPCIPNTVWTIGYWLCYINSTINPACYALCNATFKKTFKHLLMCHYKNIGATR

anaesthetized rats = assay: Effects on the heart rate in anaesthetized rats (B-9); format: in vivo, rat; conditions: i.v. infusion via jugular vein over 5 min, dose not given, in some cases means of several determinations
Experimental: B-9. Effects of the Test Substances on the Heart Rate in Anaesthetized Rats
Male rats of the strain (WI) WU Br from the breeder Charles River are anaesthetized initially with a 4-5% isoflurane inhalation for approx. 3 min. Subsequently, anaesthesia is maintained using a 1.5% isoflurane inhalation. For this purpose, the anaesthetized animals are fixed on a heated operating plate. By means of visual inspection and between toe reflex, the depth of anaesthesia is checked.
For the application of the test substance, an i.v. route into the jugular vein is used. A caudal to cranial skin incision is then made longitudinally and both the cervical musculature and the salivary glands are severed. The right common carotid artery is exposed and blood supply is arrested both proximally and distally. Using microinstrumentation, a TIP catheter (1.2 F) is introduced into the vessel in order to measure the arterial pressure and the heart rate.
Initially, both parameters are monitored for 10 min in the basal state without substance addition. The substances to be investigated are dissolved in suitable solvent mixtures and subsequently administered at various dosages to a group of animals in each case via the jugular vein by an infusion pump over 5 min. A solvent-treated group is used as control under the same experimental conditions. The arterial blood pressure and heart rate with substance addition is determined for 20 min. The data are registered with the PowerLab system (AD instruments) and evaluated using the LabChart program (AD instruments).
The values determined in this manner for the percentage decrease in heart rate for individual working examples are given in Table 4 below (in some cases as means of a plurality of independent individual determinations): […]

human M2 receptor [2] = biological target: T1, human M2 receptor
[3] = shift of acetylcholine dose-response curve (Allosteric EC50 shift)
[4] = Receptor activity EC50, allosteric potency at EC20 acetylcholine, M2-GIRK1/4 reporter cells, in some cases mean of two or more determinations
[5] = read-out: Efficiency, boosting of the acetylcholine effect at EC20 acetylcholine concentration, M2-GIRK1/4 reporter cells
[6] = shift in the acetylcholine dose-response curve (Allosteric EC50 shift, GraphPad PRISM)
[7] = Receptor activity EC50, M2-GIRK1/4 activation test, acetylcholine at EC20, allosteric potency, in some cases mean values from two or more determinations

SMILES | Cooperativity (alpha factor) (human M2 receptor [1]; [3]) | Reduction in heart rate (%) (anaesthetized rats) | EC50 (human M2 receptor [2]; [4]) [nM] | Emax (human M2 receptor [2]; [5]) [%] | Cooperativity (alpha factor) (human M2 receptor [1]; [6]) | EC50 (human M2 receptor [2]; [7]) [nM] | Emax (human M2 receptor [2]; read-out: Efficiency) [%] | Efficiency (human M2 receptor [2]; boosting of the acetylcholine effect at EC20 acetylcholine concentration, M2-GIRK1/4 reporter cells) [%]
CCC(NC(=O)c1cn(-c2c(F)cc(F)cc2F)c2nc(N3C[C@@H](O)CC3=O)ccc2c1=O)C(F)(F)C(F)(F)F (single isomer, unassigned) [Example 520] | 36 | 15 | 2 | 100 |  |  |  | 
O=C(N[C@@H](C1CC1)C(F)(F)F)c1cn(-c2c(F)cc(F)cc2F)c2nc(N3C[C@@H](O)CC3=O)ccc2c1=O [Example 404, N-[(1 S)-1-Cyclopropyl-2,2,2-trifluoroethyl]-7-[(4S)-4-hydroxy-2-oxopyrrolidin-1-yl]-4-oxo-1-(2,4,6-trifluorophenyl)-1,4-dihydro-1,8-naphthyridine-3-carboxamide] | 35 | 9 | 7 | 98.3 |  |  |  | 
CC(NC(=O)c1cn(-c2c(F)cc(F)cc2F)c2nc(N3C[C@@H](O)CC3=O)ccc2c1=O)C(F)(F)C(F)(F)F (single isomer, unassigned) [Example 530] | 44 | 13 | 6 | 98.7 |  |  |  | 
CC[C@@H](NC(=O)c1cn(-c2c(F)cc(F)cc2F)c2nc(N3C[C@@H](O)CC3=O)ccc2c1=O)C(F)(F)F [Example 325, 7-[(4S)-4-Hydroxy-2-oxopyrrolidin-1-yl]-4-oxo-N-[(2R)-1,1,1-trifluorobutan-2-yl]-1-(2,4,6-trifluorophenyl)-1,4-dihydro-1,8-naphthyridine-3-carboxamide] |  | 13 |  |  | 56 | 7 | 93 | 
CC[C@@H](NC(=O)c1cn(-c2c(F)cc(F)cc2Cl)c2nc(N3C[C@@H](O)CC3=O)ccc2c1=O)C(F)(F)F [Example 407, 1-(2-Chloro-4,6-difluorophenyl)-7-[(4S)-4-hydroxy-2-oxopyrrolidin-1-yl]-4-oxo-N-[(2R)-1,1,1-trifluorobutan-2-yl]-1,4-dihydro-1,8-naphthyridine-3-carboxamide] | 32 | 13 | 7 | 98.5 |  |  |  | 
CC[C@H](NC(=O)c1cn(-c2c(F)cc(F)cc2Cl)c2nc(N3C[C@@H](O)CC3=O)ccc2c1=O)C(F)(F)F (single isomer, unassigned) [Example 400] | 32 | 11 | 5 |  |  |  |  | 100.0
CC(C)(C)[C@@H](NC(=O)c1cn(-c2c(F)cc(F)cc2F)c2nc(N3C[C@@H](O)[C@H](O)C3)ccc2c1=O)C(F)(F)F [Example 349, 7-[(3R,4R)-3,4-Dihydroxypyrrolidin-1-yl]-4-oxo-N-[(2R)-1,1,1-trifluoro-3,3-dimethylbutan-2-yl]-1-(2,4,6-trifluorophenyl)-1,4-dihydro-1,8-naphthyridine-3-carboxamide] |  | 14 |  |  | 52 | 4 | 100 | 
CC(C)(CC(F)(F)F)NC(=O)c1cn(-c2c(F)cc(F)cc2F)c2nc(N3C[C@@H](O)[C@H](O)C3)ccc2c1=O [Example 370, 7-[(3R,4R)-3,4-Dihydroxypyrrolidin-1-yl]-4-oxo-N-(4,4,4-trifluoro-2-methylbutan-2-yl)-1-(2,4,6-trifluorophenyl)-1,4-dihydro-1,8-naphthyridine-3-carboxamide] |  | 12 |  |  | 32 | 14 |  | 
O=C(NC(c1ccccc1Cl)C(F)(F)F)c1cn(-c2ccc(F)cc2F)c2nc(N3C[C@@H](O)CC3=O)ccc2c1=O (single isomer, unassigned) [Example 213] |  | 14 |  |  | 55 | 19 |  | 
O=C(NC(c1ccccc1Cl)C(F)(F)F)c1cn(-c2ccc(F)cc2F)c2nc(N3C[C@@H](O)CC3=O)ccc2c1=O (single isomer, unassigned) [Example 212] |  | 11 |  |  | 54 | 41 |  | 
CC[C@@H](NC(=O)c1cn(-c2c(F)cccc2F)c2nc(N3C[C@@H](O)CC3=O)ccc2c1=O)C(F)(F)F [Example 275, 1-(2,6-Difluorophenyl)-7-[(4S)-4-hydroxy-2-oxopyrrolidin-1-yl]-4-oxo-N-[(2R)-1,1,1-trifluorobutan-2-yl]-1,4-dihydro-1,8-naphthyridine-3-carboxamide] |  | 9 |  |  | 38 | 18 | 92.8 | 
O=C(N[C@H](C1CC1)C(F)(F)F)c1cn(-c2ccc(F)cc2F)c2nc(N3C[C@@H](O)CC3=O)ccc2c1=O [Example 271, N-[(1R)-1-Cyclopropyl-2,2,2-trifluoroethyl]-1-(2,4-difluorophenyl)-7-[(4S)-4-hydroxy-2-oxopyrrolidin-1-yl]-4-oxo-1,4-dihydro-1,8-naphthyridine-3-carboxamide] |  | 8 |  |  | 43 | 40 |  | 
CC[C@@H](NC(=O)c1cn(-c2ccc(F)cc2F)c2nc(N3CC4C(C3)C4(F)F)ccc2c1=O)C(F)(F)F (stereo partly drawn) [Example 28, 7-(6,6-Difluoro-3-azabicyclo[3.1.0]hex-3-yl)-1-(2,4-difluorophenyl)-4-oxo-N-[(2R)-1,1,1-trifluorobutan-2-yl]-1,4-dihydro-1,8-naphthyridine-3-carboxamide] |  | 9 |  |  | 25 | 23 |  | 
O=C(N[C@@H](C1CC1)C(F)(F)F)c1cn(-c2c(F)cccc2F)c2nc(N3C[C@@H](O)CC3=O)ccc2c1=O (single isomer, unassigned) [Example 297] |  | 10 |  |  | 47 | 37 |  | 
C[C@H](NC(=O)c1cn(-c2c(F)cc(F)cc2F)c2nc(N3C[C@@H](O)CC3=O)ccc2c1=O)C(F)(F)F [Example 330, 7-[(4S)-4-Hydroxy-2-oxopyrrolidin-1-yl]-4-oxo-1-(2,4,6-trifluorophenyl)-N-[(2S)-1,1,1-trifluoropropan-2-yl]-1,4-dihydro-1,8-naphthyridine-3-carboxamide] |  | 9 |  |  | 29 | 41 |  | 
